Results published in PubChem BioAssay (NCI).
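These data come from cells grown in 96-well plates and exposed to compound for 48 hours at five concentrations. GI50 marks 50% less growth. The concentration for full growth arrest is given as TGI.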 Where a SMILES comes first, the peptide text is derived from it. The star is where a group is joined. Palmitoyl = CCCCCCCCCCCCCCCC(=O)*

Columns and labels:
Test in all cases: growth of human tumour cells (NCI), 48 h
HCT-116 colon = system: HCT-116 colon
HL-60(TB) leukemia = system: HL-60(TB) leukemia
KM12 colon = system: KM12 colon
MDA-MB-435 = system: MDA-MB-435
MOLT-4 leukemia = system: MOLT-4 leukemia
NCI-H460 lung = system: NCI-H460 lung
OVCAR-3 ovarian = system: OVCAR-3 ovarian
SN12C renal = system: SN12C renal
SNB-19 CNS = system: SNB-19 CNS
SNB-75 CNS = system: SNB-75 CNS

Structure (SMILES) | TGI (HCT-116 colon) [µM] | TGI (HL-60(TB) leukemia) [µM] | TGI (KM12 colon) [µM] | TGI (MDA-MB-435) [µM] | TGI (MOLT-4 leukemia) [µM] | TGI (NCI-H460 lung) [µM] | TGI (OVCAR-3 ovarian) [µM] | TGI (SN12C renal) [µM] | TGI (SNB-19 CNS) [µM] | TGI (SNB-75 CNS) [µM] | GI50 (HCT-116 colon) [µM] | GI50 (HL-60(TB) leukemia) [µM] | GI50 (KM12 colon) [µM] | GI50 (MDA-MB-435) [µM] | GI50 (MOLT-4 leukemia) [µM] | GI50 (NCI-H460 lung) [µM] | GI50 (OVCAR-3 ovarian) [µM] | GI50 (SNB-19 CNS) [µM] | GI50 (SNB-75 CNS) [µM]
Cc1cc(N(C)C)c2ccccc2[n+]1CCCCCCCCCC[n+]1c(C)cc(N(C)C)c2ccccc21 | 12.4 | 2.18 | 1.61 | 3.26 | 13.8 | 13 | 10.5 | 4.72 | 8.19 | 8.91 | – | – | – | – | – | – | – | – | –
CNc1[nH]c(=S)nc2sc3c(c12)CCCC3 | > 75 | > 75 | > 75 | > 75 | > 75 | – | > 75 | > 75 | > 75 | > 75 | – | – | – | – | – | – | – | – | –
N#Cc1sc2c(c1OC(=O)c1ccc(C(F)(F)F)cc1)c(=O)n(-c1ccccc1)c(=S)n2-c1ccccc1 | 74.6 | 46.1 | > 100 | 94.3 | 52.7 | > 100 | 55.5 | 88.1 | > 100 | 85.7 | – | – | – | – | – | – | – | – | –
CCOC(=O)/C(C(C)=O)=C(\OC(C)=O)c1ccncc1C(=O)O | > 100 | > 100 | > 100 | > 100 | > 100 | > 100 | > 100 | > 100 | > 100 | > 100 | – | – | – | – | – | – | – | – | –
CCOC(=O)CC/C(=N/Nc1ccc(Cl)cc1[N+](=O)[O-])C(=O)OCC | > 100 | > 100 | > 100 | > 100 | > 100 | > 100 | > 100 | > 100 | > 100 | > 100 | – | – | – | – | – | – | – | – | –
Nc1ncc2c(n1)-c1ccccc1OC2N1CCCC1 (configuration not stated) | > 100 | 51.7 | > 100 | > 100 | > 100 | > 100 | > 100 | > 100 | > 100 | > 100 | – | – | – | – | – | – | – | – | –
COc1cc(O)c2c(=O)c(OC)c(-c3ccc(OC)c(O)c3)oc2c1 | > 100 | > 100 | > 100 | > 100 | > 100 | > 100 | > 100 | > 100 | > 100 | > 100 | – | – | – | – | – | – | – | – | –
O=c1c2c(no[n+]2[O-])c2ccccc2n1-c1ccccc1 | 6.73 | 15.3 | 22 | 14.6 | 26.6 | 21.4 | 19.8 | 17.2 | 25 | 19.2 | – | – | – | – | – | – | – | – | –
Clc1ccc(C=NC23CC4CC(CC(C4)C2)C3)c(Cl)c1 | > 10 | > 10 | > 10 | > 10 | > 10 | > 10 | > 10 | > 10 | > 10 | > 10 | – | – | – | – | – | – | – | – | –
OCCCc1ccc2c(c1)[C@H](CO)[C@@H](c1ccc(O)cc1)O2 | > 100 | > 100 | > 100 | > 100 | > 100 | > 100 | > 100 | > 100 | > 100 | > 100 | – | – | – | – | – | – | – | – | –
c1ccc(C2=NOC(c3ccccc3)N2C23CC4CC(CC(C4)C2)C3)cc1 (configuration not stated) | > 10 | > 10 | > 10 | > 10 | > 10 | > 10 | > 10 | > 10 | > 10 | > 10 | – | – | – | – | – | – | – | – | –
CCOC(=O)C(NC(=O)CC)(N1CCN(c2cc3c(cc2F)c(=O)c(C(=O)O)cn3C2CC2)CC1)C(F)(F)F (configuration not stated) | > 100 | > 100 | > 100 | > 100 | > 100 | > 100 | > 100 | > 100 | > 100 | > 100 | – | – | – | – | – | – | – | – | –
CCCCCCCCCCCCCCCC(=O)N1CCCC1C(=O)NCC(=O)NC(Cc1ccccc1)C(=O)N1CCCC1C(=O)NC(CO)C(=O)NC(Cc1ccc(O)cc1)C(=O)NC(CCCCN)C(=O)NC(CC(C)C)C(=O)NC(CCCN=C(N)N)C(=O)N1CCCC1C(=O)NCC(N)=O (configuration not stated) (Palmitoyl-PGFPSYKLRPG-NH2; configuration not given here) | 31.9 | 52.9 | 12.7 | > 100 | 37.7 | 41.2 | > 100 | – | 55.5 | 49.3 | 14.8 | 18.7 | 2.28 | 23.6 | 18.6 | 19.4 | 33.3 | 25.7 | 21.7
CC12c3c4ccc(C=O)c3Oc3ccc(C=O)c(c31)Oc1ccc(C=O)c(c12)O4 | > 25 | > 25 | > 25 | > 25 | > 25 | > 25 | > 25 | > 25 | > 25 | > 25 | – | – | – | – | – | – | – | – | –
O=[N+]([O-])c1cc2oc(CSc3ccccc3)nc2cc1Cl | > 100 | > 100 | > 100 | > 100 | > 100 | 81.2 | 73.9 | > 100 | > 100 | 67.5 | – | – | – | – | – | – | – | – | –
